Measurements as given in US20140213583A1, “PI3K Inhibitor for Use in the Treatment of Bone Cancer or for Preventing Metastatic Dissemination Primary Cancer Cells into the Bone” (NOVARTIS AG, priority 2011, published 2014).
Entries after “also recorded” stand apart in the source; their conditions may differ.

Legend:
[1] = from reference (8); cited from earlier work
[2] = tested on: 453-EGFP cells (MDA-MB-453 human breast cancer cells expressing EGFP); assay: Metastasis therapy with Compound A in Rag2-/-;Il2rg-/- mice challenged i.v. with 453-EGFP cells; format: in vivo; conditions: 50 mg/kg per os daily
From the text: Rag2^−/−;Il2rg^−/− breeders were kindly given by Drs. T. Nomura and M. Ito of the Central Institute for Experimental Animals (Kawasaki, Japan). Mice were then bred in our animal facilities under sterile conditions. Athymic Crl:CD-1-Foxn1^nu/nu mice (referred to as nude mice) were purchased from Charles River Italy and kept under sterile conditions. Experiments were authorized by the institutional review board of the University of Bologna and done according to Italian and European guidelines.
MDA-MB-453 and BT-474 breast cancer cell lines were originally obtained from by Dr. Serenella M. Pupa (Istituto Nazionale dei Tumori, Milan, Italy). Cell lines were authenticated by DNA fingerprinting on the 11 Nov. 2010 (performed by DSMZ, Braunschweig, Germany). Cells were routinely cultured in Roswell Park Memorial Institute (RPMI) medium supplemented with 10% foetal bovine serum and were maintained at 37° C. in a humidified 5% CO2 atmosphere. All medium constituents were purchased from Invitrogen, Milan, Italy. In order to visualize metastatic cells/lesions, breast cancer cell lines were transfected with a plasmid expressing Enhanced Green Fluorescent Protein (pEGFP-N1, Clontech, Mountain View, Calif.) using Lipofectamine 2000 (Invitrogen). Stable transfectants were selected using G418 (Invitrogen). EGFP expression was monitored by fluorescence microscopy and quantified by cytofluorimetric analysis.
Nine-20-week-old female Rag2^−/−;Il2rg^−/− mice were used throughout this work. Local tumors were induced with 10^7 viable human tumour cells injected either subcutaneously in the right hind leg or in the fat pad of the fourth (abdominal) left mammary gland in 0.2 ml of PBS. Tumor diameters were periodically measured with digital calipers and tumor volumes calculated as […], where a=maximal tumor diameter and b=major tumor diameter perpendicular to a. For intravenous (i.v.) administrations, 2×10^6 cells in 0.4 ml PBS were injected in a tail vein. Nude mice (5-6 week-old) were treated i.v. with anti-asialo GM1 antiserum (Wako, Dusseldorf, Germany), 0.4 ml of a 1:30 dilution in PBS, to deplete NK activity, 24 h prior to the injection of human tumour cells. Pilot experiments were performed to assess for each cell line the time at which experimental metastases could be detected.
Tumor-bearing mice were sacrificed at various times (see Results), depending on tumor and metastasis growth, and were subjected to an accurate necropsy. Lungs were stained with black India ink to better outline metastases and fixed in Fekete's solution. Lung and liver metastases were counted using a dissection microscope. When EGFP-expressing cells were injected, whole mice and dissected organs were carefully examined using a Lightools imaging system (Lightools Research, Encinitas, Calif.) to detect fluorescent metastatic deposits. Quantification of metastatic load in brain and bone marrow was performed by immunofluorescence followed by cytofluorimetric analysis and by Real-Time PCR. Brain was minced with scissors and passed through a 70 μm cell strainer (Becton Dickinson, Bedford, Mass., USA) to obtain a homogeneous cell suspension. Bone marrow was flushed from both femurs in PBS and filtered through a 70 μm strainer. A mouse monoclonal antibody against human HER-2 (clone Neu 24.7, Becton Dickinson, San Jose, Calif., USA) labeled with phycoerythrin was used to quantify human cells by cytofluorometric analysis. Real-Time PCR was performed on genomic DNA extracted with 10 mM Tris-HCl buffer pH 8.3 containing 50 mM KCl, 2.5 mM MgCl2, 0.01% gelatin, 0.45% igepal, 0.45% tween 20 and 120 μg/ml proteinase K (all reagents from Sigma, Milan, Italy) by an overnight incubation at 56° C. followed by […] incubation at 95° C. to inactivate the proteinase K. A sequence of the α-satellite region of the human chromosome 17 was amplified. […]

Structure (SMILES): Nc1cc(C(F)(F)F)c(-c2cc(N3CCOCC3)nc(N3CCOCC3)n2)cn1 [Compound A, 5-(2,6-di-morpholin-4-yl-pyrimidin-4-yl)-4-trifluoromethyl-pyridin-2-ylamine]
- penetration of the blood-brain barrier [1]: excellent penetration
- inhibition in the number of human cells in the brain, HER-2 flow cytometry ([2]; 37 treatments, HER-2-positive cells in dissociated brain (FIG. 2B)): > 90%
- inhibition in the number of human cells in the brain, human-specific qPCR ([2]; 37 treatments, brain metastatic burden by qPCR (FIG. 2A)): > 90%
- number of bone metastases decreased ([2]; 37 treatments, visual count of metastatic sites per mouse (FIG. 2C)): 67%
- growth of 453-EGFP in heavily colonized organs (brain and lungs) ([2]; brain and lungs (FIG. 1B-C)): strongly inhibited
- incidence of metastases in different sites ([2]; brain, bone marrow and liver, p<0.05 at least, Fisher's exact test (FIG. 1A)): a sizeable proportion of mice were metastasis-free; also recorded: significant inhibition
- reduction of the metastatic burden ([2]; different target organs): highly significant and widespread reduction
